Columns and labels:
NE = biological target: T1, NE (Homo sapiens, UniProt P08246); assay: Enzyme kinetics study of NE with BTPDNe (Michaelis-Menten, HPLC); assay type: biochemical; conditions: NE 0.1 U/mL, BTPDNe 2-80 μM
T1 sequence (P08246 30-267): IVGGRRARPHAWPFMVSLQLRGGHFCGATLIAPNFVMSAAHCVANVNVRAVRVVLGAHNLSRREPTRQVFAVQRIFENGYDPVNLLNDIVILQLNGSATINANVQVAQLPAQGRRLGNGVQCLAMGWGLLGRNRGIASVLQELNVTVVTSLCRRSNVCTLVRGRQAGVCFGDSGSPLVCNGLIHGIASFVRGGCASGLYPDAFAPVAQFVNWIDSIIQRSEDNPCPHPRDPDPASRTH
Experimental: To carry out the kinetic assay, various concentrations of BTPDNe (2, 5, 10, 20, 40 and 80 μM) were incubated with NE (0.1 U/mL) at 37° C. for 10 min in 50 mM Tris, 1 M NaCl, 0.05% (w/v) Brij-35, and at pH=7.5. After incubation, quantification analyses were determined by HPLC. The initial reaction velocity was calculated, plotted against the concentration of BTPDNe, and fitted to a Michaelis-Menten curve. Finally, the kinetic parameters were calculated by Michaelis Menten equation: […]
where v is initial velocity, and [S] is substrate concentration.

dorsal skins of mice = assay: Histopathologic, immunohistochemical and flow cytometry analyses of dorsal skins (IMQ psoriasis model); assay type: in vivo, BALB/c mice; conditions: fresh slides of dorsal skins, 2-day IMQ treatment, immunofluorescence
Experimental: The control group was treated with Vaseline (50 mg/d) and the IMQ-treatment group was applied with IMQ cream (60 mg/d, 5%) once a day. […] Probe BTPDNe (10 uM, 1 mM in DMSO) was thoroughly mixed with Aquaphor (˜10 mg) and applied for psoriasis imaging, followed by poly(methyl methacrylate) microneedle treatment for 1 min. Then, chemiluminescent signals at different time-points (0, 3, 5, 10, 15, 30, 45 and 60 min) after probe-treatment were recorded using IVIS system bioluminescence with acquiring time of 180 s. Until the third day, all the mice were sacrificed to collect tissue and blood for further experiments (hematoxylin and eosin (H&E) staining and flow cytometry analysis) as described in Example 11.
The dorsal skin samples were separated and soaked in 4% paraformaldehyde (4% PFA) for 12 h and immersed in 30% sucrose solution. The skin samples were stained by hematoxylin and eosin (H&E). Then, the samples were flash-frozen by liquid nitrogen, immobilized with optimal cutting temperature compound, and section slices ([…]). The thickness of epidermis was observed under a microscope (Nikon ECLIPSE 80i microscope). APC-Ly6G, as a neutrophil marker, was used to stain neutrophil cells and DAPI was applied for cell nucleus staining. The immunofluorescence was observed by Nikon ECLIPSE 80i microscope.
After performing in vivo chemiluminescence imaging of neutrophils using BTPDNe in psoriasis-bearing mice with 2 day IMQ treatment, fresh section slices from dorsal skins were stained with Ly6G. Immunofluorescence imaging of slices with activated BTPDNe in green color was observed upon excitation at 405 nm and emission at 500-550 nm, while red color from Ly6G was observed upon excitation from 633-647 nm and emission at 660 nm. The immunofluorescence imaging was acquired by Nikon ECLIPSE 80i microscope.

COC1(c2ccc(-c3nc4ccccc4s3)c(OCc3ccc(NC(=O)[C@@H](NC(=O)[C@@H]4CCCN4C(=O)[C@H](C)NC(=O)[C@H](C)NC(C)=O)C(C)C)cc3)c2)OOC12C1CC3CC(C1)CC2C3 (stereo partly shown) [BTPDNe]
enzyme kinetic coefficient (NE): 22000 M⁻¹ s⁻¹ | Kcat (NE; 37° C., 10 min, pH 7.5): 1.15 s⁻¹ | Km (NE; 37° C., 10 min, pH 7.5): 52.2 µM | colocalization of probe activation with neutrophil marker (dorsal skins of mice): colocalized well with APC-Ly6G

— US20240277873A1, “ULTRABRIGHT […] PROBES FOR DETECTION AND IMAGING” (Nanyang Technological University, priority 2021, published 2024)
